Data taken from PubChem BioAssay (NCI).
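Following 48 hours of exposure in 96-well plates, responses at five concentrations were used to interpolate endpoints linearly. At the TGI there is no net growth.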

Columns and labels:
Assay in all cases: NCI-60 cell line screen, 48 h
HOP-92 NSCLC = system: HOP-92 NSCLC
HOP-62 NSCLC = system: HOP-62 NSCLC
NCI-H460 lung = system: NCI-H460 lung
M19-MEL melanoma = system: M19-MEL melanoma
SNB-19 CNS = system: SNB-19 CNS
SK-MEL-28 melanoma = system: SK-MEL-28 melanoma
RXF 393 renal = system: RXF 393 renal
DMS 114 small cell lung = system: DMS 114 small cell lung
TK-10 renal = system: TK-10 renal
SF-295 CNS = system: SF-295 CNS
SK-OV-3 ovarian = system: SK-OV-3 ovarian
CAKI-1 renal = system: CAKI-1 renal
SNB-78 CNS = system: SNB-78 CNS
NCI-H23 lung = system: NCI-H23 lung
CCRF-CEM leukemia = system: CCRF-CEM leukemia
SW-620 colon = system: SW-620 colon
RPMI-8226 leukemia = system: RPMI-8226 leukemia
DMS 273 small cell lung = system: DMS 273 small cell lung
SF-268 CNS = system: SF-268 CNS
KM12 colon = system: KM12 colon
EKVX NSCLC = system: EKVX NSCLC
U251 CNS = system: U251 CNS
NCI-H226 lung = system: NCI-H226 lung
SR leukemia = system: SR leukemia
SK-MEL-2 melanoma = system: SK-MEL-2 melanoma
HCC-2998 colon = system: HCC-2998 colon
KM20L2 colon = system: KM20L2 colon
HT29 colon = system: HT29 colon
SK-MEL-5 melanoma = system: SK-MEL-5 melanoma
HOP-18 NSCLC = system: HOP-18 NSCLC
MOLT-4 leukemia = system: MOLT-4 leukemia
SNB-75 CNS = system: SNB-75 CNS
786-0 renal = system: 786-0 renal
ACHN renal = system: ACHN renal
HL-60(TB) leukemia = system: HL-60(TB) leukemia
OVCAR-5 ovarian = system: OVCAR-5 ovarian
A549 NSCLC = system: A549 NSCLC
SF-539 CNS = system: SF-539 CNS
OVCAR-8 ovarian = system: OVCAR-8 ovarian
M14 melanoma = system: M14 melanoma
UACC-62 melanoma = system: UACC-62 melanoma
XF 498 CNS = system: XF 498 CNS
LXFL 529 NSCLC = system: LXFL 529 NSCLC
UACC-257 melanoma = system: UACC-257 melanoma
MALME-3M melanoma = system: MALME-3M melanoma
COLO 205 colon = system: COLO 205 colon
HCT-15 colon = system: HCT-15 colon
K-562 leukemia = system: K-562 leukemia
DLD-1 colon = system: DLD-1 colon
LOX IMVI melanoma = system: LOX IMVI melanoma
OVCAR-3 ovarian = system: OVCAR-3 ovarian
OVCAR-4 ovarian = system: OVCAR-4 ovarian
SN12C renal = system: SN12C renal
HCT-116 colon = system: HCT-116 colon
UO-31 renal = system: UO-31 renal
IGROV1 ovarian = system: IGROV1 ovarian
A498 renal = system: A498 renal
NCI-H522 lung = system: NCI-H522 lung

Measured: TGI

CP1(=O)CCCCC1
> 100 µM: HOP-92 NSCLC | HOP-62 NSCLC | NCI-H460 lung | M19-MEL melanoma | SNB-19 CNS | SK-MEL-28 melanoma | RXF 393 renal | DMS 114 small cell lung | TK-10 renal | SF-295 CNS | SK-OV-3 ovarian | CAKI-1 renal | SNB-78 CNS | NCI-H23 lung | CCRF-CEM leukemia | SW-620 colon | RPMI-8226 leukemia | DMS 273 small cell lung | SF-268 CNS | KM12 colon | EKVX NSCLC | U251 CNS | NCI-H226 lung | SR leukemia | SK-MEL-2 melanoma | HCC-2998 colon | KM20L2 colon | HT29 colon | SK-MEL-5 melanoma | HOP-18 NSCLC | MOLT-4 leukemia | SNB-75 CNS | 786-0 renal | ACHN renal | HL-60(TB) leukemia | OVCAR-5 ovarian | A549 NSCLC | SF-539 CNS | OVCAR-8 ovarian | M14 melanoma | UACC-62 melanoma | XF 498 CNS | LXFL 529 NSCLC | UACC-257 melanoma | MALME-3M melanoma | COLO 205 colon | HCT-15 colon | K-562 leukemia | DLD-1 colon | LOX IMVI melanoma | OVCAR-3 ovarian | OVCAR-4 ovarian | SN12C renal | HCT-116 colon | UO-31 renal | IGROV1 ovarian

CNS(=O)(=O)NN(C)S(=O)(=O)c1ccccc1
> 100 µM: HOP-62 NSCLC | NCI-H460 lung | M19-MEL melanoma | SNB-19 CNS | RXF 393 renal | DMS 114 small cell lung | TK-10 renal | SF-295 CNS | CAKI-1 renal | NCI-H23 lung | CCRF-CEM leukemia | SW-620 colon | RPMI-8226 leukemia | DMS 273 small cell lung | SF-268 CNS | KM12 colon | EKVX NSCLC | U251 CNS | NCI-H226 lung | SR leukemia | SK-MEL-2 melanoma | HCC-2998 colon | KM20L2 colon | HT29 colon | SK-MEL-5 melanoma | MOLT-4 leukemia | SNB-75 CNS | 786-0 renal | ACHN renal | HL-60(TB) leukemia | A549 NSCLC | SF-539 CNS | A498 renal | OVCAR-8 ovarian | M14 melanoma | UACC-62 melanoma | LXFL 529 NSCLC | UACC-257 melanoma | MALME-3M melanoma | COLO 205 colon | HCT-15 colon | K-562 leukemia | DLD-1 colon | LOX IMVI melanoma | OVCAR-4 ovarian | NCI-H522 lung | SN12C renal | HCT-116 colon | UO-31 renal | IGROV1 ovarian
